Source: ChEMBL document CHEMBL3046068, “Design, synthesis, and biological activity of certain quinazolinedione derivatives as potent phosphodiestrase4 inhibitors” (Med Chem Res, 2012)

Biological target: 3',5'-cyclic-AMP phosphodiesterase 4B (Homo sapiens) (UniProt Q07343)
Experiment: Inhibition of PDE4B (unknown origin) using FAM-cAMP as substrate at 10 uM after 60 min by fluorescence polarization assay

3',5'-cyclic-AMP phosphodiesterase 4B (Homo sapiens), sequence (Q07343 whole entry): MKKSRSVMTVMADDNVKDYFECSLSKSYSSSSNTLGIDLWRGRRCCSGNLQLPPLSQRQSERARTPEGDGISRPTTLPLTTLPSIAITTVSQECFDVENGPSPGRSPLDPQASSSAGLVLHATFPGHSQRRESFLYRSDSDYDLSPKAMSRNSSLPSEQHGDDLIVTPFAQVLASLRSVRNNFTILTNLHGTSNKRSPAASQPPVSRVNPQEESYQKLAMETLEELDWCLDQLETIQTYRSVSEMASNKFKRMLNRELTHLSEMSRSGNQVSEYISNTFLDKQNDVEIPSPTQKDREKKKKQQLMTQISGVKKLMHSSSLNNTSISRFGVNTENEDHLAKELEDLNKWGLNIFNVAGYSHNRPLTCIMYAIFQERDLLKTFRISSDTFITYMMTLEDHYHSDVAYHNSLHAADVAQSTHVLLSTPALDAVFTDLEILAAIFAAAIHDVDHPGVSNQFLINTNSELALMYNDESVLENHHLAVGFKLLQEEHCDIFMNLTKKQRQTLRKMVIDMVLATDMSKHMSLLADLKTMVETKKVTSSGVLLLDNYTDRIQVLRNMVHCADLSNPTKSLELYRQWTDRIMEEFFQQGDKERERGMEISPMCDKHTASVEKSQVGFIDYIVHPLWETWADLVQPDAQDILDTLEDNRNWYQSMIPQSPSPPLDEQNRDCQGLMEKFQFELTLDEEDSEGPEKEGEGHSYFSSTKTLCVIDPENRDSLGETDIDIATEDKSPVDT

inhibition [%] | SMILES
11 | CCCCn1c(=O)c2ccccc2n(CCCN2CCCCC2)c1=O
100 | CCCCn1c(=O)c2ccccc2n(CCCN2CCOCC2)c1=O
8 | CCCCn1c(=O)c2ccccc2n(CC(=O)c2ccc(Cl)cc2)c1=O
17 | CCCCn1c(=O)c2ccccc2n(CCN2CCOCC2)c1=O
25 | CCCCn1c(=O)c2ccccc2n(CCN2CCN(c3ccccc3)CC2)c1=O
8 | CCCCn1c(=O)c2ccccc2n(CCN(CC)CC)c1=O
11 | CCCCn1c(=O)c2ccccc2n(CCN2CCCCC2)c1=O
56 | CCCCn1c(=O)c2ccccc2n(Cc2ccccc2)c1=O
22 | CCCCn1c(=O)c2ccccc2n(CC(=O)c2ccccc2)c1=O
13 | CCCCn1c(=O)c2ccccc2n(CCCN2CCN(c3ccccc3)CC2)c1=O
9 | CCCCn1c(=O)c2ccccc2n(CCCN(CC)CC)c1=O
